# Measurements from patent EP4745153A1, “GLP-1, GIP AND GCG RECEPTOR […] USE THEREOF” (Jiangsu Hengrui Pharmaceuticals Co., Ltd., priority 2023, dated 2025).
# Like-named read-outs stand apart in the source and are kept apart here. Starred links: 1 amine or outer side, 2 acyl side, 3 side chain; linkers in the order of their positions; H or OH if unused. Non-standard residues stand in square brackets, D forms with d. Residues, ends and D or L forms follow the SMILES beside them. Groups on a side chain read outwards from the residue. No end group written: not given here. *: point of attachment. C20 diacid = O=C(O)CCCCCCCCCCCCCCCCCCC(=O)*; γGlu = O=C(O)[C@H](CCC(=O)[*:2])N[*:1]; αMeK = C[C@](N)(CCCCN)C(=O)O; Iva = CC[C@](C)(N)C(=O)O; AEEA = NCCOCCOCC(=O)O; Aib = CC(C)(N)C(=O)O
# T1: human GIPR (Homo sapiens, UniProt P48546)
# T1 construct: expressed in transfected cells; host or cells: CHO-K1 clonal cell line
# T1 sequence (P48546 22-466): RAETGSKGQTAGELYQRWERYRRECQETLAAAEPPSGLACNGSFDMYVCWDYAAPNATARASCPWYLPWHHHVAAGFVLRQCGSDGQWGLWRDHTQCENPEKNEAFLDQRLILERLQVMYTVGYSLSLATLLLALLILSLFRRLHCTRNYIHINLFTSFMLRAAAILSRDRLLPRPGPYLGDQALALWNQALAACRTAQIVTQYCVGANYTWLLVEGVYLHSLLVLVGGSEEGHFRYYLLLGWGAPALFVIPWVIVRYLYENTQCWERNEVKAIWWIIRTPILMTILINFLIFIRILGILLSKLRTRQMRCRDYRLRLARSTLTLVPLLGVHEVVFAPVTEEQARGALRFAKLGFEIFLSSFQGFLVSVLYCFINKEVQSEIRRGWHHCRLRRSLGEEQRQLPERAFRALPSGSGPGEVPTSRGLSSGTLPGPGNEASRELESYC
# T2: human glucose-dependent insulinotropic polypeptide receptor (human, UniProt P48546 22-466)
# T2 sequence (looked up): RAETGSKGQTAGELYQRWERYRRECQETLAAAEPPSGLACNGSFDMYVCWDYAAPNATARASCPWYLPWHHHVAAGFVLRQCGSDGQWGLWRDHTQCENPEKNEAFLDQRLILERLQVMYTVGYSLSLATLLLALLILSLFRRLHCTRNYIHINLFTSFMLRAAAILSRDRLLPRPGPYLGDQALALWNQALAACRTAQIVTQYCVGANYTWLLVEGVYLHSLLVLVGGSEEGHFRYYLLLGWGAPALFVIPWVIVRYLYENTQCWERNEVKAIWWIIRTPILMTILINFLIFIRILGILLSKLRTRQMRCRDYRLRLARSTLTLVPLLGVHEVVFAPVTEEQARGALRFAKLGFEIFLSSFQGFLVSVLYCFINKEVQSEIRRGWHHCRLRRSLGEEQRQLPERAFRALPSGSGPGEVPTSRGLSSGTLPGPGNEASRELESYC
# What was measured:
# [1] = In vivo efficacy in diet-induced obesity (DIO) rat model; conditions: DIO rats
# Description: In this experiment, a DIO rat model established on a 45% high-fat diet (HFD) was used to evaluate the effects of compounds on obesity-related indicators in DIO rats.
# After one week of acclimatization, all rats were randomly divided into two groups: a normal group and a model group. The rats in the model group were then fed 45% HFD (Medison: MD12032), while the rats in the normal group were fed normal food. The body weight of the rats was measured weekly to monitor the modeling process.
# DIO rats fed a high-fat diet for 37 weeks were weighed, and 75 DIO rats (approximately 1100g) and 8 rats (approximately 800g) on a normal diet (Chow diet) were selected and separated into individual cages. Each cage was fed approximately 100g of food at a time, and the food was changed every 48 hours. A preliminary sham dose experiment was then conducted. Subcutaneous acupuncture was performed on the neck once daily at 4 pm for 9 consecutive days. Body weight was measured before each acupuncture session and the effect of sham dose on body weight was observed. A curve of body weight changes over time was plotted. The formal dosing experiment was initiated after the body weight had stabilized.
# Six Chow diet rats (weighing approximately 800g) and 30 HFD rats (weighing approximately 1100g) were selected through a preliminary sham dose experiment for subsequent dosing experiments. […] During the experiment, all rats were housed in single cages. The compound was dissolved in PBS solution at pH 7.4. On the day of grouping (Day 1), rats in each group were given the drug by subcutaneous injection in the neck according to their body weight, once daily (QD), as detailed in Table 9. […] The body weight was measured once daily at 15:00 or before administration, and a curve of body weight changes over time was plotted. Food intake: 1-7 days, measured once daily at 15:00 or before administration; 8-40 days, measured once every three days at 15:00 or before administration. A curve of changes in daily/cumulative food intake over time was plotted. Table 9. Dosing information for experimental groups
# [2] = In vivo efficacy in diet-induced obesity (DIO) mouse model; set-up: species or system C57BL/6J mice; conditions: 10 nmol/kg subcutaneous once daily for 24 days
# Text: In this example, a DIO mouse model established by high-fat diet induction was used to evaluate the effects on and improvement of obesity and diabetes-related indicators in DIO mice after subcutaneous injection of some of the compounds in the present disclosure.
# 4.1 Experimental methods: Obese male C57BL/6J mice (23-24 weeks old, obtained from Beijing Vital River Laboratory Animal Technology Co., Ltd.) induced by a high-fat diet were purchased. Six-week-old male C57BL/6J mice were fed a 60% high-fat diet (RD D12492) until their body weight reached 45-50g to obtain DIO model mice. After arriving at the facility and undergoing a week of acclimatization feeding, the animals were randomly divided into groups according to their body weight and administered vehicle (model group), LY3437943, Compound 15, Compound 16, Compound 17 and Compound 18 via subcutaneous injection in the neck. The compound was administered at a dose of 10 nmol/kg, and the frequency of administration was once daily via subcutaneous injection for 24 days. Each group contained 5 DIO mice. According to the experimental design, the body weight of each mouse was weighed and recorded daily at 3 pm or before administration, the average body weight of each group of mice was calculated, and a curve of body weight change over time was plotted. After the experiment, the fat and other organs of the mice were removed from various parts of the body, weighed, and recorded.
# [3] = target: T1, human GIPR; test: cAMP HTRF agonist activity assay in CHO-K1 cells expressing GIPR; type: cell-based
# How it was run: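 cAMP accumulation measured by competitive HTRF after 30 min incubation of polypeptides with 5000 receptor-expressing CHO-K1 cells/well at 37°C. Percent of maximal response versus concentration fitted to a four-parameter logistic to give relative EC50.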
# [4] = Pharmacokinetics in mice after single intravenous injection; set-up: species or system C57 mice; conditions: mouse, in vivo, male C57 mice, single intravenous dose 200 nmol/kg, plasma
# How it was run: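 Plasma concentrations were measured by positive-mode ESI LC-MS/MRM, with verapamil as internal standard, at time points from 5 min to 72 h. Samples came from three male C57 mice per compound, aged 4-6 weeks, dosed once intravenously with 200 nmol/kg in 1×PBS; PK parameters were derived with PKSolver.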
# [5] = target: T2, human glucose-dependent insulinotropic …; test: cell-based or functional assay
# [6] = target: human glucagon receptor (human, UniProt P47871 26-477); test: cell-based or functional assay
# [7] = target: human glucagon-like peptide-1 receptor (human, UniProt P43220 24-463); test: cell-based or functional assay
# [8] = target: T2, human glucose-dependent insulinotropic …; test: cell-based or functional assay; remark: listed apart in the source
# [9] = after dose adjustment, 3 nmol/kg subcutaneous QD
# Chain of human glucagon receptor (P47871 26-477): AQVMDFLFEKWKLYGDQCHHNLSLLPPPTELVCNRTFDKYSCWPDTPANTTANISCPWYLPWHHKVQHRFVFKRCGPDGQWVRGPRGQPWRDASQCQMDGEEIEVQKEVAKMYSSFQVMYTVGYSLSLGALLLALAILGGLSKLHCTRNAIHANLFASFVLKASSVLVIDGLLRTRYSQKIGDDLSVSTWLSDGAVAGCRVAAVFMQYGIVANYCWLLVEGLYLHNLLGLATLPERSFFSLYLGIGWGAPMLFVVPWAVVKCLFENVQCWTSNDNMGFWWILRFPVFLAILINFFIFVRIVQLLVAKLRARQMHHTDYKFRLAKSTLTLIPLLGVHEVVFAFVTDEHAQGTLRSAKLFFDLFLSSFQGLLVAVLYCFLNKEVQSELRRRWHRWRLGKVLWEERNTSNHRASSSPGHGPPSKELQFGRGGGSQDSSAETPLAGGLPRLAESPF
molecule,measurement,setting,value
CC[C@H](C)[C@H](NC(=O)[C@H](CO)NC(=O)[C@H](Cc1ccc(O)cc1)NC(=O)[C@H](CC(=O)O)NC(=O)[C@H](CO)NC(=O)[C@@H](NC(=O)[C@H](Cc1ccccc1)NC(=O)[C@@H](NC(=O)CNC(=O)[C@H](Cc1c[nH]cn1)NC(=O)C(C)(C)NC(=O)[C@@H](N)Cc1c[nH]cn1)[C@@H](C)O)[C@@H](C)O)C(=O)N[C@@H](CC(C)C)C(=O)N[C@@H](CC(C)C)C(=O)N[C@@H](CCC(=O)O)C(=O)N[C@@H](CCCCNC(=O)COCCOCCNC(=O)COCCOCCNC(=O)CC[C@H](NC(=O)CCCCCCCCCCCCCCCCCCC(=O)O)C(=O)O)C(=O)N[C@@H](CCCCN)C(=O)N[C@@H](C)C(=O)N[C@@H](C)C(=O)N[C@@H](CCC(N)=O)C(=O)N[C@@H](CCC(=O)O)C(=O)N[C@@H](Cc1ccccc1)C(=O)N[C@H](C(=O)N[C@@H](CCC(=O)O)C(=O)N[C@@H](Cc1c[nH]c2ccccc12)C(=O)N[C@@H](CC(C)C)C(=O)N[C@@H](CC(C)C)C(=O)N[C@@H](C)C(=O)NCC(=O)NCC(=O)N1CCC[C@H]1C(=O)N[C@@H](CO)C(=O)N[C@@H](CO)C(=O)NCC(=O)N[C@@H](C)C(=O)N1CCC[C@H]1C(=O)N1CCC[C@H]1C(=O)N1CCC[C@H]1C(=O)N[C@@H](CO)C(N)=O)C(C)C [Compound 0120] (H-H[Aib]HGTFTSDYSILLEK([AEEA-AEEA-γGlu-C20 diacid])KAAQEFVEWLLAGGPSSGAPPPS-NH2),24h food intake compared with the model group,[1]; [9],significantly reduced
same,cumulative food intake compared with the model group,[1]; [9],significantly reduced
same,cumulative food intake,"[1]; entire administration period (before and after dose adjustment), 0.3 then 3 nmol/kg subcutaneous QD",258.8 ± 23.5 g
same,body weight loss at the end of the experiment,"[1]; subcutaneous QD, 0.3 nmol/kg adjusted to 3 nmol/kg from day 15",30.2%
same,body weight compared with the model group,"[1]; subcutaneous QD, 1 nmol/kg, before adjusting the administration dose",decreasing trend
same,body weight of DIO mice compared with the test group given the vehicle,[2],significant reduction in body weight
same,final body weight relative to body weight of mice on a normal diet (Chow),[2]; indicating good safety,≥ 80%
same,body weight reduction at the experimental endpoint,[2]; DIO mice,36.6%
same,EC50,[3],0.002 nM
same,AUC(0-inf),[4],94.1 µM·h
same,C0,[4],9.93 µM
same,clearance,[4]; read-out: CLp,2.04 mL/h/kg
same,half-life,[4]; read-out: T1/2 (converted),14.7 h
H[Aib]HGTFTSDYS[αMeK]YLEK([AEEA-AEEA-γGlu-C20 diacid])KAQQEFVEWLLAGGPSSGAPPPS-NH2 [Compound No. 0113],Activity against human GIPR (EC50 nM),[5],0.015 nM
same,Activity against human GCGR (EC50 nM),[6],5.91 nM
H[Aib]HGTFTSDYS[αMeK]LLEK([AEEA-AEEA-γGlu-C20 diacid])QAA[Iva]EFVEWLLAGGPSSGAPPPS-NH2 [Compound No. 0128],Activity against human GLP-1R (EC50 nM),[7],0.04 nM
same,Activity against human GIPR (EC50 nM),[8],0.0005 nM
H[Aib]HGTFTSDYS[αMeK]YLEK([AEEA-AEEA-γGlu-C20 diacid])KAAQEFVEWLIAGGPSSGAPPPS-NH2 (N-terminus assumed; SMILES CC[C@H](C)[C@H](NC(=O)[C@H](CC(C)C)NC(=O)[C@H](Cc1c[nH]c2ccccc12)NC(=O)[C@H](CCC(=O)O)NC(=O)[C@@H](NC(=O)[C@H](Cc1ccccc1)NC(=O)[C@H](CCC(=O)O)NC(=O)[C@H](CCC(N)=O)NC(=O)[C@H](C)NC(=O)[C@H](C)NC(=O)[C@H](CCCCN)NC(=O)[C@H](CCCCNC(=O)COCCOCCNC(=O)COCCOCCNC(=O)CC[C@H](NC(=O)CCCCCCCCCCCCCCCCCCC(=O)O)C(=O)O)NC(=O)[C@H](CCC(=O)O)NC(=O)[C@H](CC(C)C)NC(=O)[C@H](Cc1ccc(O)cc1)NC(=O)[C@](C)(CCCCN)NC(=O)[C@H](CO)NC(=O)[C@H](Cc1ccc(O)cc1)NC(=O)[C@H](CC(=O)O)NC(=O)[C@H](CO)NC(=O)[C@@H](NC(=O)[C@H](Cc1ccccc1)NC(=O)[C@@H](NC(=O)CNC(=O)[C@H](Cc1c[nH]cn1)NC(=O)C(C)(C)NC(=O)[C@@H](N)Cc1c[nH]cn1)[C@@H](C)O)[C@@H](C)O)C(C)C)C(=O)N[C@@H](C)C(=O)NCC(=O)NCC(=O)N1CCC[C@H]1C(=O)N[C@@H](CO)C(=O)N[C@@H](CO)C(=O)NCC(=O)N[C@@H](C)C(=O)N1CCC[C@H]1C(=O)N1CCC[C@H]1C(=O)N1CCC[C@H]1C(=O)N[C@@H](CO)C(N)=O) [Compound No. 0111],Activity against human GIPR (EC50 nM),[5],0.024 nM
same,Activity against human GCGR (EC50 nM),[6],0.552 nM
